# Values quoted from earlier work in patent US4689323A, “Covalently bound heparin--antithrombin-III complex” (Miles Laboratories, Inc., priority 1983, dated 1987).
# How the values were obtained:
# [1] = tested on: plasma antithrombin-III ("AT-III"); conditions: continuous intravenous infusion, thromboembolic patients
# [2] = Scientific Protein Labs., porcine intestines
substance,measurement,setting,value
heparin sodium,decrease in plasma antithrombin-III levels,[1],about 35%
same,anticoagulant activity of the starting heparin,[2],167.7 USP units/mg
